Assay results from US12195427B2, “MASP-2 inhibitors and methods of use” (priority 2018, dated 2025).
Structures can show the parent of a compound that is named as a salt. Blank lines part the entries; values can stand above or below the compound they belong to.

Target: MASP-2 CCP2-SP (Homo sapiens (Human), UniProt O00187)
Assay: MASP-2 co-crystallization, X-ray crystallography and structure analysis (H-bonds, van der Waals contacts);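 on Ligand-pharmacophore element distance, pharmacophore element C2: distance from averaged pharmacophore element to bound ligand; missing value means element absent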;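 on Ligand-pharmacophore element distance, pharmacophore element C3: distance from averaged pharmacophore element to bound ligand; missing value means element absent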;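 on Ligand-pharmacophore element distance, pharmacophore element C4: distance from averaged pharmacophore element to bound ligand; missing value means element absent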;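 on Ligand-pharmacophore element distance, pharmacophore element C5: distance from averaged pharmacophore element to bound ligand; missing value means element absent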
Set-up: van der Waals contact distance, MASP-2 HIS 483 atom CD2 / van der Waals contact distance, MASP-2 HIS 483 atom NE2 / van der Waals contact distance, SER 654 C to compound atom / van der Waals contact distance, SER 654 O to compound atom / van der Waals contact distance, TRP 655 C to compound atom / van der Waals contact distance, MASP-2 GLY 528 atom CA / van der Waals contact distance TRP 655 atom CZ3 / van der Waals contact distance TRP 655 atom N / van der Waals contact distance TRP 655 atom CE3 / van der Waals contact distance GLY 656 atom C / van der Waals contact distance GLY 656 atom CA / van der Waals contact distance GLY 656 atom O / van der Waals contact distance, MASP-2 TYR 607 atom CD1 / van der Waals contact distance, MASP-2 PRO 606 atom O / d(C3,CA1) / d(CA1,N1)2 / d(H4,O1) / d(H4,O2) / d(O1,O2) / d(CA1,O2) / d(CA6,O1) / d(CA6,O2) / d(CA1,C5) / d(O2,H3) / d(N2,C2) / d(CA5,N2) / d(N2,C4) / d(N2,C6) / d(N2,CA3) / d(N2,O3) / d(O4,H2): unit not given beside the values
Settings: for H-bond distance to MASP-2 ASP 627 atom OD2: ASP 627 OD2; for H-bond distance to MASP-2 GLY 656 atom N: GLY 656 N; for H-bond distance to MASP-2 GLY 656 atom O: GLY 656 O; for H-bond distance to MASP-2 SER 654 atom O: SER 654 O; for H-bond distance to MASP-2 SER 657 atom O: SER 657 O; for van der Waals contact distance, MASP-2 HIS 483 atom CD2 / van der Waals contact distance, MASP-2 HIS 483 atom NE2: Table A2-1; for Ligand-pharmacophore element distance, pharmacophore element C2 / Ligand-pharmacophore element distance, pharmacophore element C3 / Ligand-pharmacophore element distance, pharmacophore element C4 / Ligand-pharmacophore element distance, pharmacophore element C5 / Ligand-pharmacophore element distance, pharmacophore element C6 / Ligand-pharmacophore element distance, pharmacophore element C7 / Ligand-pharmacophore element distance, pharmacophore element CA1 / Ligand-pharmacophore element distance, pharmacophore element CA2 / Ligand-pharmacophore element distance, pharmacophore element CA3 / Ligand-pharmacophore element distance, pharmacophore element CA4 / Ligand-pharmacophore element distance, pharmacophore element CA5 / Ligand-pharmacophore element distance, pharmacophore element CA6: Table A4-1; for a(N1, CA1, O1) b): Methyl-amino-pyridine compounds; for van der Waals contact distance TRP 655 atom CE3: MASP-2 TRP 655 CE3, compound atom in line below
Procedure, shortened: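 Soaked crystals of recombinant CCP2-SP (E. coli) yield the structures, phased by molecular replacement on 1Q3X pieces. Hydrophobic or nonbonded contacts can also cover atom pairs that are potential hydrogen bonds.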

[1] = Table A5-1 pharmacophore: distance between elements, S2/S1 region
[2] = Table A5-2 pharmacophore distance, S3/S4 region
[3] = Table A7-1, between pharmacophore elements of the bound compound
[4] = Table A7-2, between pharmacophore elements of the bound compound

Sequence of MASP-2 CCP2-SP (O00187 445-686): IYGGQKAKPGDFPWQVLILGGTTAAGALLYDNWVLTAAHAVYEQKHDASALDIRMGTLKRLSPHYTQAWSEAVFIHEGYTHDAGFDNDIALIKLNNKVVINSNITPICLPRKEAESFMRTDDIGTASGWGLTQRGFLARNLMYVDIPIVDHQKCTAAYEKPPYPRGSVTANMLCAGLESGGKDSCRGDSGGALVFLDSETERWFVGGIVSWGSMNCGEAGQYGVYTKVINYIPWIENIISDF
Sequence of MASP-2 CCP2-SP (O00187 364-432 partner): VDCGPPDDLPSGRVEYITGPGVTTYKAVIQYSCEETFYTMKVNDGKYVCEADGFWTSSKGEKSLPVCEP

Compound: Cc1nc(N)ccc1CNC(=O)[C@H](C)NC(=O)[C@H]1C[C@H](Cc2cc(Cl)cc(Cl)c2)CN1 [compound 1435, (2R,4S)—N—((S)-1-(((6-Amino-2-methylpyridin-3-yl)methyl)amino)-1-oxopropan-2-yl)-4-(3,5-dichlorobenzyl)pyrrolidine-2-carboxamide Dihydrochloride]
H-bond distance to MASP-2 ASP 627 atom OD2 (Table A1 (H-Bonds)): 3.32
H-bond distance to MASP-2 GLY 656 atom N (Table A1 (H-Bonds)): 3.26
H-bond distance to MASP-2 GLY 656 atom O (Table A1 (H-Bonds)): 2.79
H-bond distance to MASP-2 SER 654 atom O (Table A1 (H-Bonds)): 3.01
H-bond distance to MASP-2 SER 657 atom O (Table A1 (H-Bonds)): 2.84
van der Waals contact distance, MASP-2 amino acid atom to compound atom (Table A2): 3.83
van der Waals contact distance, MASP-2 HIS 483 atom CD2: 3.7
van der Waals contact distance, MASP-2 HIS 483 atom NE2: 3.6
van der Waals contact distance, MASP-2 PHE 529 atom CD2 (Table A2-3): 3.61
van der Waals contact distance, MASP-2 amino acid atom to compound atom (Table A2-7: SER 628 (CB, O, OG)): 3.67
van der Waals contact distance, TRP 655 CA to compound atom (Table A2-12): 3.41
Ligand-pharmacophore element distance, pharmacophore element C2: 0
Ligand-pharmacophore element distance, pharmacophore element C3: 0.15
Ligand-pharmacophore element distance, pharmacophore element C4: 1.37
Ligand-pharmacophore element distance, pharmacophore element C5: 0
Ligand-pharmacophore element distance, pharmacophore element C6: 0.38
Ligand-pharmacophore element distance, pharmacophore element C7: 0
Ligand-pharmacophore element distance, pharmacophore element CA1: 0.6
Ligand-pharmacophore element distance, pharmacophore element CA2: 0.8
Ligand-pharmacophore element distance, pharmacophore element CA3: 0
Ligand-pharmacophore element distance, pharmacophore element CA4: 0
Ligand-pharmacophore element distance, pharmacophore element CA5: 0
Ligand-pharmacophore element distance, pharmacophore element CA6: 0
d(C3,CA1) [1]: 2.85
d(CA1,N1)2 [1]: 1.38
d(CA1,O1) [1]: 4.36
d(CA1,O2) [1]: 3.86
d(H4,O1) [1]: 4.37
d(H4,O2) [1]: 3.79
d(O1,O2) [1]: 3.37
d(N2,C4) [2]: 8.24
d(N2,C4)4 [2]: 8.24
d(N2,C6) [2]: 7.51
d(N2,CA2) [2]: 6.00
d(O2,H3) [2]: 4.33
d(O2,N2) [2]: 2.62
a(C3, CA1, O1) (Table A6-1 pharmacophore angle): 149.49
a(CA1, O1, O2) (Table A6-1 pharmacophore angle): 106.19
a(O1, O2, H4) (Table A6-1 pharmacophore angle): 131.96
a(N1, CA1, O1) b) (Table A6-1 pharmacophore angle): 173.74
a(O1, O2, H3) (Table A6-2 pharmacophore angle): 147.24
a(O1, O2, N2) (Table A6-2 pharmacophore angle): 139.75
a(O2, N2, C4) (Table A6-2 pharmacophore angle): 164.21
a(O2, N2, C4) 2 (Table A6-2 pharmacophore angle): 121.06
a(O2, N2, C6) (Table A6-2 pharmacophore angle): 99.38
a(O2, N2, CA2) (Table A6-2 pharmacophore angle): 157.86
Pharmacophore torsion angle a(C3, CA1, O1, H4) [3]: 24.44
Pharmacophore torsion angle a(H4, O1, O2, H3) [3]: 51.39
Pharmacophore torsion angle a(H4, O1, O2, N2) [3]: 136.22
Pharmacophore torsion angle a(N1, CA1, O1, H4) [3]: 1.43
Pharmacophore torsion angle a(O1, H4, O2, CA1) [3]: −83.48
Pharmacophore torsion angle a(O1, O2, N2, C6) [4]: 137.30
Pharmacophore torsion angle a(O1, O2, N2, CA2) [4]: 123.48

H-bond distance to MASP-2 ASP 627 atom OD2 (Table A1 (H-Bonds)): 3.23
H-bond distance to MASP-2 GLY 656 atom N (Table A1 (H-Bonds)): 3.2
H-bond distance to MASP-2 SER 628 atom O (Table A1 (H-Bonds), SER 628 O): 3.06
H-bond distance to MASP-2 SER 654 atom O (Table A1 (H-Bonds)): 3.07
H-bond distance to MASP-2 SER 657 atom O (Table A1 (H-Bonds)): 2.91
van der Waals contact distance, MASP-2 amino acid atom to compound atom (Table A2): 3.8
van der Waals contact distance, MASP-2 HIS 483 atom CD2: 3.74
van der Waals contact distance, MASP-2 HIS 483 atom NE2: 3.61
van der Waals contact distance, MASP-2 GLY 528 atom CA (Table A2-2): 3.71
van der Waals contact distance, MASP-2 PHE 529 atom CE1 (Table A2-3): 3.85
van der Waals contact distance, MASP-2 amino acid atom to compound atom (Table A2-9, ARG 630, AA atoms CG, CZ): 3.87
van der Waals contact distance, VAL 653 CG1 to compound atom (Table A2-11): 3.38
van der Waals contact distance, SER 654 O to compound atom (Table A2-12): 3.85
van der Waals contact distance, TRP 655 CA to compound atom (Table A2-12): 3.34
van der Waals contact distance TRP 655 atom CE3 (Table A2-13): 3.65
van der Waals contact distance TRP 655 atom CZ3 (Table A2-13, MASP-2 TRP 655 CZ3): 3.75
Ligand-pharmacophore element distance, pharmacophore element C2: 0.54
Ligand-pharmacophore element distance, pharmacophore element C3: 0.17
Ligand-pharmacophore element distance, pharmacophore element C4: 0
Ligand-pharmacophore element distance, pharmacophore element C5: 0
Ligand-pharmacophore element distance, pharmacophore element C6: 0
Ligand-pharmacophore element distance, pharmacophore element C7: 0
Ligand-pharmacophore element distance, pharmacophore element CA1: 0.64
Ligand-pharmacophore element distance, pharmacophore element CA2: 0.64
Ligand-pharmacophore element distance, pharmacophore element CA3: 0
Ligand-pharmacophore element distance, pharmacophore element CA4: 0
Ligand-pharmacophore element distance, pharmacophore element CA5: 0
Ligand-pharmacophore element distance, pharmacophore element CA6: 0
d(C3,CA1) [1]: 2.85
d(CA1,N1)2 [1]: 1.37
d(CA1,O1) [1]: 4.27
d(CA1,O2) [1]: 3.96
d(H4,O1) [1]: 4.29
d(H4,O2) [1]: 3.79
d(O1,O2) [1]: 3.29
d(N2,C2) [2]: 1.45
d(N2,CA2) [2]: 5.75
d(O2,H3) [2]: 4.15
d(O2,N2) [2]: 2.72
a(C3, CA1, O1) (Table A6-1 pharmacophore angle): 148.89
a(CA1, O1, O2) (Table A6-1 pharmacophore angle): 108.56
a(O1, O2, H4) (Table A6-1 pharmacophore angle): 132.47
a(N1, CA1, O1) b) (Table A6-1 pharmacophore angle): 173.13
a(O1, O2, H3) (Table A6-2 pharmacophore angle): 145.43
a(O1, O2, N2) (Table A6-2 pharmacophore angle): 144.23
a(O2, N2, C2) (Table A6-2 pharmacophore angle): 131.10
a(O2, N2, CA2) (Table A6-2 pharmacophore angle): 156.32
Pharmacophore torsion angle a(C3, CA1, O1, H4) [3]: 21.88
Pharmacophore torsion angle a(H4, O1, O2, H3) [3]: 50.54
Pharmacophore torsion angle a(H4, O1, O2, N2) [3]: 141.99
Pharmacophore torsion angle a(N1, CA1, O1, H4) [3]: −6.82
Pharmacophore torsion angle a(O1, H4, O2, CA1) [3]: −80.01
Pharmacophore torsion angle a(O1, O2, N2, C2) [3]: 117.29
Pharmacophore torsion angle a(O1, O2, N2, CA2) [4]: 126.16
Compound: Cc1nc(N)ccc1CNC(=O)[C@H](C)NC(=O)[C@H]1C[C@@H](c2ccccc2)CCN1C [compound 1441, (2R,4S)—N—((S)-1-(((6-Amino-2-methylpyridin-3-yl)methyl)amino)-1-oxopropan-2-yl)-1-methyl-4-phenylpiperidine-2-carboxamide]

H-bond distance to MASP-2 ASP 627 atom OD2 (Table A1 (H-Bonds)): 3.32
H-bond distance to MASP-2 GLY 656 atom N (Table A1 (H-Bonds)): 3.06
H-bond distance to MASP-2 GLY 656 atom O (Table A1 (H-Bonds)): 2.7
H-bond distance to MASP-2 SER 654 atom O (Table A1 (H-Bonds)): 2.78
H-bond distance to MASP-2 SER 657 atom O (Table A1 (H-Bonds)): 2.72
H-bond distance to MASP-2 SER 657 atom OG (Table A1 (H-Bonds), SER 657 OG): 2.62
van der Waals contact distance, MASP-2 HIS 483 atom CD2: 3.78
van der Waals contact distance, MASP-2 PRO 606 atom O (Table A2-4): 3.81
van der Waals contact distance, MASP-2 amino acid atom to compound atom (Table A2-9 second part, ARG 630, AA atoms N, NE, NH1): 3.71
van der Waals contact distance, SER 654 C to compound atom (Table A2-11): 3.88
van der Waals contact distance, VAL 653 CG1 to compound atom (Table A2-11): 3.61
van der Waals contact distance, TRP 655 C to compound atom (Table A2-12): 3.7
van der Waals contact distance TRP 655 atom CE3 (Table A2-13): 3.74
van der Waals contact distance, MASP-2 amino acid atom to compound atom (Table A2 section before Table A2-8): 3.86
Ligand-pharmacophore element distance, pharmacophore element C2: 2.91
Ligand-pharmacophore element distance, pharmacophore element C3: 0
Ligand-pharmacophore element distance, pharmacophore element C4: 0
Ligand-pharmacophore element distance, pharmacophore element C5: 0
Ligand-pharmacophore element distance, pharmacophore element C6: 0
Ligand-pharmacophore element distance, pharmacophore element C7: 0
Ligand-pharmacophore element distance, pharmacophore element CA1: 1.7
Ligand-pharmacophore element distance, pharmacophore element CA2: 0
Ligand-pharmacophore element distance, pharmacophore element CA3: 0
Ligand-pharmacophore element distance, pharmacophore element CA4: 0
Ligand-pharmacophore element distance, pharmacophore element CA5: 0.84
Ligand-pharmacophore element distance, pharmacophore element CA6: 0
d(CA1,N1) [1]: 1.85
d(CA1,O1) [1]: 4.66
d(CA1,O2) [1]: 6.47
d(CA6,O1) [1]: 3.43
d(CA6,O2) [1]: 1.13
d(H4,O1) [1]: 3.14
d(H4,O2) [1]: 5.11
d(O1,O2) [1]: 3.18
d(O2,H3) [2]: 7.20
a(CA1, O1, O2) (Table A6-1 pharmacophore angle): 137.45
a(O1, CA6, O2) (Table A6-1 pharmacophore angle): 87.17
a(O1, O2, H4) (Table A6-1 pharmacophore angle): 143.64
A(N1, CA1, O1) a) (Table A6-1 pharmacophore angle, all compounds with protonatable center N1 except Methyl-amino-pyridine): 173.84
a(O1, O2, H3) (Table A6-2 pharmacophore angle): 153.97
Pharmacophore torsion angle a(CA6, O1, H4, O2) [3]: −19.90
Pharmacophore torsion angle a(H4, O1, O2, H3) [3]: 94.72
Pharmacophore torsion angle a(N1, CA1, O2, H4) [3]: −132.36
Pharmacophore torsion angle a(O1, H4, O2, CA1) [3]: −60.21
Compound: Cc1cnc(NCCc2ccccc2)c(=O)n1CC(=O)NCc1ccc2nc(N)[nH]c2c1 [compound 1492, N-((2-Amino-1H-benzo[d]imidazol-6-yl)methyl)-2-(6-methyl-2-oxo-3-(phenethylamino)pyrazin-1(2H)-yl)acetamide Trifluoroacetamide salt]
